Data from patent US9255090B2, “Heterocyclyl derivatives and their use as prostaglandin D2 receptor modulators” (Actelion Pharmaceuticals Ltd., priority 2012, dated 2016).
pIC50: −log10 of the molar value.

Biological target: hCRTH2 receptor (Homo sapiens (Human), UniProt Q9Y5Y4)
Experiment: hCRTH2 receptor membranes radioligand (3H-PGD2) displacement assay
Format: binding
Details: 3H-PGD2 radioligand displacement, HEK293-hCRTH2 membranes
Method in brief: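 Compound was first mixed with buffer, then 3H-PGD2 was added at 2.5 nM, and the reaction was started with hCRTH2 membranes from HEK293 cells at 20 μg/well. After 90 min at room temperature, mixtures were filtered and washed with ice-cold buffer, and retained radioactivity was counted.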

hCRTH2 receptor, sequence (Q9Y5Y4 whole entry): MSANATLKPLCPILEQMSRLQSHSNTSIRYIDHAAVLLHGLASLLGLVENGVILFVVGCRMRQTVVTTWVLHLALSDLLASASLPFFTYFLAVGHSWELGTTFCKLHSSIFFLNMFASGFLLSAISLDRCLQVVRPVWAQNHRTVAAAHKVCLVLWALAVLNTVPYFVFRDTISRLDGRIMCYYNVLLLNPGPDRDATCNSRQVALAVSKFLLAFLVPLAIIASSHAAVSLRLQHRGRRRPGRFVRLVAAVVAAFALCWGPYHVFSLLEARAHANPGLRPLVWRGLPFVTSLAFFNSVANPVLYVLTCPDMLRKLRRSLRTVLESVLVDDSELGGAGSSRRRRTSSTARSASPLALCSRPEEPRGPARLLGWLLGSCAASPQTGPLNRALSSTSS

SMILES | pIC50
C[C@@H](CC(=O)N1CCc2c(F)ccc(-c3ccc(CC(=O)O)cc3OCC(F)(F)F)c2C1)c1ccccc1 [Example 287, [4-[5-Fluoro-2-((S)-3-phenyl-butyryl)-1,2,3,4-tetrahydro-isoquinolin-8-yl]-3-(2,2,2-trifluoro-ethoxy)-phenyl]-acetic acid] | 8.09
O=C(O)Cc1ccc(-c2ccc(F)c3c2CN(C(=O)[C@@H]2C[C@H]2c2ccccc2)CC3)c(OCC(F)(F)F)c1 [Example 289, [4-[5-Fluoro-2-((1R,2R)-2-phenyl-cyclopropanecarbonyl)-1,2,3,4-tetrahydro-isoquinolin-8-yl]-3-(2,2,2-trifluoro-ethoxy)-phenyl]-acetic acid] | 8.85
CC(C)Oc1ccc(CC(=O)O)cc1-c1ccc(F)c2c1CN(C(=O)CC(C)(C)c1ccccc1)CC2 [Example 291, {3-[5-Fluoro-2-(3-methyl-3-phenyl-butyryl)-1,2,3,4-tetrahydro-isoquinolin-8-yl]-4-isopropoxy-phenyl}-acetic acid] | 8.23
CC(C)Oc1ccc(CC(=O)O)cc1-c1ccc(F)c2c1CN(C(=O)C[C@@H](C)c1ccccc1)CC2 [Example 292, {3-[5-Fluoro-2-((R)-3-phenyl-butyryl)-1,2,3,4-tetrahydro-isoquinolin-8-yl]-4-isopropoxy-phenyl}-acetic acid] | 8.60
CC(C)(CC(=O)N1CCc2c(F)ccc(-c3cc(CC(=O)O)ccc3OCC(F)(F)F)c2C1)c1ccccc1 [Example 300, [3-[5-Fluoro-2-(3-methyl-3-phenyl-butyryl)-1,2,3,4-tetrahydro-isoquinolin-8-yl]-4-(2,2,2-trifluoro-ethoxy)-phenyl]-acetic acid] | 7.83
C[C@H](CC(=O)N1CCc2c(F)ccc(-c3cc(CC(=O)O)ccc3OCC(F)(F)F)c2C1)c1ccccc1 [Example 301, [3-[5-Fluoro-2-((R)-3-phenyl-butyryl)-1,2,3,4-tetrahydro-isoquinolin-8-yl]-4-(2,2,2-trifluoro-ethoxy)-phenyl]-acetic acid] | 8.44
CCOc1ccc(CC(=O)O)cc1-c1ccc(F)c2c1CN(C(=O)CCc1ncccc1OC)CC2 [Example 309, (4-Ethoxy-3-{5-fluoro-2-[3-(3-methoxy-pyridin-2-yl)-propionyl]-1,2,3,4-tetrahydro-isoquinolin-8-yl}-phenyl)-acetic acid] | 7.49
CCOc1ccc(CC(=O)O)cc1-c1ccc(F)c2c1CN(C(=O)CCc1ccccc1F)CC2 [Example 312, (4-Ethoxy-3-{5-fluoro-2-[3-(2-fluoro-phenyl)-propionyl]-1,2,3,4-tetrahydro-isoquinolin-8-yl}-phenyl)-acetic acid] | 8.32
CCOc1cc(CC(=O)O)ccc1-c1ccc(F)c2c1CN(C(=O)CCc1cccc(F)c1)CC2 [Example 316, (3-Ethoxy-4-{5-fluoro-2-[3-(3-fluoro-phenyl)-propionyl]-1,2,3,4-tetrahydro-isoquinolin-8-yl}-phenyl)-acetic acid] | 8.68
CCOc1cc(CC(=O)O)ccc1-c1ccc(F)c2c1CN(C(=O)CCc1ccccc1F)CC2 [Example 317, (3-Ethoxy-4-{5-fluoro-2-[3-(2-fluoro-phenyl)-propionyl]-1,2,3,4-tetrahydro-isoquinolin-8-yl}-phenyl)-acetic acid] | 8.77
CCOc1ccc(CC(=O)O)cc1-c1ccc(F)c2c1CN(C(=O)/C=C/c1ccccn1)CC2 [Example 336, {4-Ethoxy-3-[5-fluoro-2-((E)-3-pyridin-2-yl-acryloyl)-1,2,3,4-tetrahydro-isoquinolin-8-yl]-phenyl}-acetic acid] | 8.42
CCOc1ccc(CC(=O)O)cc1-c1ccc(F)c2c1CN(C(=O)/C=C/c1cnn(C)c1)CC2 [Example 341, (4-Ethoxy-3-{5-fluoro-2-[(E)-3-(1-methyl-1H-pyrazol-4-yl)-acryloyl]-1,2,3,4-tetrahydro-isoquinolin-8-yl}-phenyl)-acetic acid] | 8.24
CC(C)Oc1cc(CC(=O)O)ccc1-c1ccc(F)c2c1CN(C(=O)CC(C)(C)c1ccccc1)CC2 [Example 354, {4-[5-Fluoro-2-(3-methyl-3-phenyl-butyryl)-1,2,3,4-tetrahydro-isoquinolin-8-yl]-3-isopropoxy-phenyl}-acetic acid] | 8.38
CC(C)Oc1cc(CC(=O)O)ccc1-c1ccc(F)c2c1CN(C(=O)C[C@H](C)c1ccccc1)CC2 [Example 355, {4-[5-Fluoro-2-((S)-3-phenyl-butyryl)-1,2,3,4-tetrahydro-isoquinolin-8-yl]-3-isopropoxy-phenyl}-acetic acid] | 7.99

Further compounds by rising pIC50, results first:

pIC50 | SMILES
6.01 | COc1ccc(CC(=O)O)cc1-c1ccc(F)c2c1CN(C(=O)[C@H](C)c1ccccc1)CC2 [Example 255, {3-[5-Fluoro-2-((R)-2-phenyl-propionyl)-1,2,3,4-tetrahydro-isoquinolin-8-yl]-4-methoxy-phenyl}-acetic acid]
6.05 | CCOc1ccc(CC(=O)O)cc1-c1ccc(F)c2c1CN(C(=O)Cc1ccccn1)CC2 [Example 340, {4-Ethoxy-3-[5-fluoro-2-(2-pyridin-2-yl-acetyl)-1,2,3,4-tetrahydro-isoquinolin-8-yl]-phenyl}-acetic acid]
6.82 | CCOc1cc(CC(=O)O)ccc1-c1ccc(F)c2c1CN(C(=O)Cc1ccccn1)CC2 [Example 342, {3-Ethoxy-4-[5-fluoro-2-(2-pyridin-2-yl-acetyl)-1,2,3,4-tetrahydro-isoquinolin-8-yl]-phenyl}-acetic acid]
7.02 | COc1ccc(CC(=O)O)cc1-c1ccc(F)c2c1CN(C(=O)[C@@H]1CCCc3ccccc31)CC2 [Example 269, {3-[5-Fluoro-2-((R)-1,2,3,4-tetrahydro-naphthalene-1-carbonyl)-1,2,3,4-tetrahydro-isoquinolin-8-yl]-4-methoxy-phenyl}-acetic acid]
7.34 | CCOc1cc(CC(=O)O)ccc1-c1ccc(F)c2c1CN(C(=O)CCc1ncccc1OC)CC2 [Example 314, (3-Ethoxy-4-{5-fluoro-2-[3-(3-methoxy-pyridin-2-yl)-propionyl]-1,2,3,4-tetrahydro-isoquinolin-8-yl}-phenyl)-acetic acid]
7.44 | CCOc1ccc(CC(=O)O)cc1-c1ccc(F)c2c1CN(C(=O)CC1(c3ccccc3F)CC1)CC2 [Example 276, [4-Ethoxy-3-(5-fluoro-2-{2-[1-(2-fluoro-phenyl)-cyclopropyl]-acetyl}-1,2,3,4-tetrahydro-isoquinolin-8-yl)-phenyl]-acetic acid]
7.52 | CCOc1ccc(CC(=O)O)cc1-c1ccc(F)c2c1CN(C(=O)/C=C/c1ccn(C)n1)CC2 [Example 337, (4-Ethoxy-3-{5-fluoro-2-[(E)-3-(1-methyl-1H-pyrazol-3-yl)-acryloyl]-1,2,3,4-tetrahydro-isoquinolin-8-yl}-phenyl)-acetic acid]
7.90 | CCOc1cc(CC(=O)O)ccc1-c1ccc(F)c2c1CN(C(=O)/C=C/c1cnn(C)c1)CC2 [Example 339, (3-Ethoxy-4-{5-fluoro-2-[(E)-3-(1-methyl-1H-pyrazol-4-yl)-acryloyl]-1,2,3,4-tetrahydro-isoquinolin-8-yl}-phenyl)-acetic acid]
7.90 | Cc1cccc(CCC(=O)N2CCc3c(F)ccc(-c4cc(CC(=O)O)ccc4OCC(F)(F)F)c3C2)n1 [Example 304, [3-{5-Fluoro-2-[3-(6-methyl-pyridin-2-yl)-propionyl]-1,2,3,4-tetrahydro-isoquinolin-8-yl}-4-(2,2,2-trifluoro-ethoxy)-phenyl]-acetic acid]
8.05 | CC(C)(CC(=O)N1CCc2c(F)ccc(-c3ccc(CC(=O)O)cc3OCC(F)(F)F)c2C1)c1ccccc1 [Example 286, [4-[5-Fluoro-2-(3-methyl-3-phenyl-butyryl)-1,2,3,4-tetrahydro-isoquinolin-8-yl]-3-(2,2,2-trifluoro-ethoxy)-phenyl]-acetic acid]
8.29 | CCOc1cc(CC(=O)O)ccc1-c1ccc(F)c2c1CN(C(=O)CCc1ccc(F)cc1)CC2 [Example 315, (3-Ethoxy-4-{5-fluoro-2-[3-(4-fluoro-phenyl)-propionyl]-1,2,3,4-tetrahydro-isoquinolin-8-yl}-phenyl)-acetic acid]
8.41 | CCOc1ccc(CC(=O)O)cc1-c1ccc(F)c2c1CN(C(=O)CCc1cccc(F)c1)CC2 [Example 311, (4-Ethoxy-3-{5-fluoro-2-[3-(3-fluoro-phenyl)-propionyl]-1,2,3,4-tetrahydro-isoquinolin-8-yl}-phenyl)-acetic acid]
8.64 | CCOc1cc(CC(=O)O)ccc1-c1ccc(F)c2c1CN(C(=O)/C=C/c1ccccn1)CC2 [Example 338, {3-Ethoxy-4-[5-fluoro-2-((E)-3-pyridin-2-yl-acryloyl)-1,2,3,4-tetrahydro-isoquinolin-8-yl]-phenyl}-acetic acid]
8.68 | CC(C)Oc1cc(CC(=O)O)ccc1-c1ccc(F)c2c1CN(C(=O)C[C@@H](C)c1ccccc1)CC2 [Example 356, {4-[5-Fluoro-2-((R)-3-phenyl-butyryl)-1,2,3,4-tetrahydro-isoquinolin-8-yl]-3-isopropoxy-phenyl}-acetic acid]
8.77 | Cc1cccc(CCC(=O)N2CCc3c(F)ccc(-c4cc(CC(=O)O)ccc4OC(C)C)c3C2)n1 [Example 295, (3-{5-Fluoro-2-[3-(6-methyl-pyridin-2-yl)-propionyl]-1,2,3,4-tetrahydro-isoquinolin-8-yl}-4-isopropoxy-phenyl)-acetic acid]
8.82 | C[C@H](CC(=O)N1CCc2c(F)ccc(-c3ccc(CC(=O)O)cc3OCC(F)(F)F)c2C1)c1ccccc1 [Example 347, [4-[5-Fluoro-2-((R)-3-phenyl-butyryl)-1,2,3,4-tetrahydro-isoquinolin-8-yl]-3-(2,2,2-trifluoro-ethoxy)-phenyl]-acetic acid]
9.30 | CCOc1cc(CC(=O)O)ccc1-c1ccc(F)c2c1CN(C(=O)CCc1ccccn1)CC2 [Example 349, {3-Ethoxy-4-[5-fluoro-2-(3-pyridin-2-yl-propionyl)-1,2,3,4-tetrahydro-isoquinolin-8-yl]-phenyl}-acetic acid]
